Test results taken from PMC6009984, “Synthesis and biological evaluation of benzenesulphonamide-bearing 1,4,5-trisubstituted-1,2,3-triazoles possessing human carbonic anhydrase I, II, IV, and IX inhibitory activity” (Journal of Enzyme Inhibition and Medicinal Chemistry, 2017).

Experiments:
[1] = target: hCA I (Homo sapiens, UniProt P00915); test: stopped-flow CO2 hydrase assay, hCA I
[2] = target: hCA II (Homo sapiens, UniProt P00918); test: stopped-flow CO2 hydrase assay, hCA II; details: Ki (nM) hCA II, cytosolic isoform; mean from three different assays, stopped flow technique, errors ±5–10%
[3] = target: hCA IV (Homo sapiens, UniProt P22748); test: stopped-flow CO2 hydrase assay, hCA IV
[4] = target: hCA IX (Homo sapiens, UniProt Q16790); test: stopped-flow CO2 hydrase assay, hCA IX

Sequence of hCA IV (P22748 19-312): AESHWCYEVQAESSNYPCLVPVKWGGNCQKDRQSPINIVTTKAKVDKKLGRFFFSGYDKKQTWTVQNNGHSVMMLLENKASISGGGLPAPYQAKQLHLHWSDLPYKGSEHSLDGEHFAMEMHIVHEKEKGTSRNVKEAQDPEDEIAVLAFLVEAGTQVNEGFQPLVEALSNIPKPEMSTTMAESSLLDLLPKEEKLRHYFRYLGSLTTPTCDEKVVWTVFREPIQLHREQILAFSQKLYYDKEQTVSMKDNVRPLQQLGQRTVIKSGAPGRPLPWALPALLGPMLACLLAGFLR
Sequence of hCA I (P00915 whole entry, canonical isoform): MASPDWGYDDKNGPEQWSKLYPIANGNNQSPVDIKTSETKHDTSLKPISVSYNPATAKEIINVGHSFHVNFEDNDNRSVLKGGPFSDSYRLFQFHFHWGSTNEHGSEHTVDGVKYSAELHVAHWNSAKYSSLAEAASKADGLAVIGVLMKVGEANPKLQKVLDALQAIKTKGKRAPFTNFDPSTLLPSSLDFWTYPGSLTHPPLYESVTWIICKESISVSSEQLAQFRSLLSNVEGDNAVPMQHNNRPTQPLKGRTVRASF

Row | SMILES | Ki [1] [nM] | Ki [2] [nM] | Ki [3] [nM] | Ki [4] [nM] | melting point [°C]
1 | CCOC(=O)c1nnn(-c2ccc(S(N)(=O)=O)cc2)c1C [Compound 4a, Ethyl 1-[4-(aminosulfonyl)phenyl]-5-methyl-1H-1,2,3-triazole-4-carboxylate] | 9.1 | 3.2 | 3.5 | 6.6 | –
2 | CCOC(=O)c1nnn(-c2ccc(S(N)(=O)=O)cc2)c1-c1ccccc1 [Compound 4b, Ethyl 1-[4-(aminosulfonyl)phenyl]-5-phenyl-1H-1,2,3-triazole-4-carboxylate] | 246 | 6 | 5.1 | 9.5 | 184
3 | CCOC(=O)c1nnn(-c2ccc(S(N)(=O)=O)cc2)c1-c1ccc(OC)cc1 [Compound 4c, Ethyl 1-[4-(aminosulfonyl)phenyl]-5-(4-methoxyphenyl)-1H-1,2,3-triazole-4-carboxylate] | 63 | 6.1 | 4.5 | 40 | 176
4 | CCOC(=O)c1nnn(-c2ccc(S(N)(=O)=O)cc2)c1-c1ccc2ccccc2c1 [Compound 4d, Ethyl 1-[4-(aminosulfonyl)phenyl]-5-(2-naphthyl)-1H-1,2,3-triazole-4-carboxylate] | 68.2 | 5.8 | 5 | 7.1 | 180
5 | Cc1c(C(=O)O)nnn1-c1ccc(S(N)(=O)=O)cc1 [Compound 5a, 1-[4-(Aminosulfonyl)phenyl]-5-methyl-1H-1,2,3-triazole-4-carboxylic acid] | 9.6 | 1.6 | 269 | 8.5 | 198
6 | NS(=O)(=O)c1ccc(-n2nnc(C(=O)O)c2-c2ccccc2)cc1 [Compound 5b, 1-[4-(Aminosulfonyl)phenyl]-5-phenyl-1H-1,2,3-triazole-4-carboxylic acid] | 646 | 97.9 | 55.3 | 45.9 | –
7 | COc1ccc(-c2c(C(=O)O)nnn2-c2ccc(S(N)(=O)=O)cc2)cc1 [Compound 5c, 1-[4-(Aminosulfonyl)phenyl]-5-(4-methoxyphenyl)-1H-1,2,3-triazole-4-carboxylic acid] | 489 | 9 | 2.4 | 42.3 | 148 to 150
8 | NS(=O)(=O)c1ccc(-n2nnc(C(=O)O)c2-c2ccc3ccccc3c2)cc1 [Compound 5d, 1-[4-(Aminosulfonyl)phenyl]-5-(2-naphthyl)-1H-1,2,3-triazole-4-carboxylic acid] | 56.2 | 8.9 | 4.1 | 4.2 | 198 to 200
9 | Cc1c(C(N)=O)nnn1-c1ccc(S(N)(=O)=O)cc1 [Compound 6a, 1-[4-(Aminosulfonyl)phenyl]-5-methyl-1H-1,2,3-triazole-4-carboxamide] | 8.3 | 1.9 | 212 | 9.5 | 314 to 316
10 | NC(=O)c1nnn(-c2ccc(S(N)(=O)=O)cc2)c1-c1ccccc1 [Compound 6b, 1-[4-(Aminosulfonyl)phenyl]-5-phenyl-1H-1,2,3-triazole-4-carboxamide] | 69.1 | 9.1 | 1.4 | 28.3 | 210
11 | COc1ccc(-c2c(C(N)=O)nnn2-c2ccc(S(N)(=O)=O)cc2)cc1 [Compound 6c, 1-[4-(Aminosulfonyl)phenyl]-5-(4-methoxyphenyl)-1H-1,2,3-triazole-4-carboxamide] | 874 | 6.2 | 1.7 | 6.8 | 280 to 282
12 | NC(=O)c1nnn(-c2ccc(S(N)(=O)=O)cc2)c1-c1ccc2ccccc2c1 [Compound 6d, 1-[4-(Aminosulfonyl)phenyl]-5-(2-naphthyl)-1H-1,2,3-triazole-4-carboxamide] | 772 | 6 | 4 | 6.7 | 278 to 280
13 | Cc1c(C(=O)NN)nnn1-c1ccc(S(N)(=O)=O)cc1 [Compound 7a, 4-[4-(Hydrazinocarbonyl)-5-methyl-1H-1,2,3-triazol-1-yl]benzenesulphonamide] | 15.1 | 7.6 | 228 | 9.3 | –
14 | NNC(=O)c1nnn(-c2ccc(S(N)(=O)=O)cc2)c1-c1ccccc1 [Compound 7b, 4-[4-(Hydrazinocarbonyl)-5-phenyl-1H-1,2,3-triazol-1-yl]benzenesulphonamide] | 73.7 | 38 | 22.7 | 26.1 | 206
15 | COc1ccc(-c2c(C(=O)NN)nnn2-c2ccc(S(N)(=O)=O)cc2)cc1 [Compound 7c, 4-[4-(Hydrazinocarbonyl)-5-(4-methoxyphenyl)-1H-1,2,3-triazol-1-yl]benzenesulphonamide] | 91.2 | 5.6 | 4 | 8.1 | 170 to 172
16 | NNC(=O)c1nnn(-c2ccc(S(N)(=O)=O)cc2)c1-c1ccc2ccccc2c1 [Compound 7d, 4-[4-(Hydrazinocarbonyl)-5-(2-naphthyl)-1H-1,2,3-triazol-1-yl]benzenesulphonamide] | 82.5 | 1.6 | 2 | 7.2 | 156
17 | Cc1c(CO)nnn1-c1ccc(S(N)(=O)=O)cc1 [Compound 8a, 4-(4-(Hydroxymethyl)-5-methyl-1H-1,2,3-triazol-1-yl)benzenesulphonamide] | 354 | 58.9 | 360 | 30.6 | 184
18 | NS(=O)(=O)c1ccc(-n2nnc(CO)c2-c2ccccc2)cc1 [Compound 8b, 4-(4-(Hydroxymethyl)-5-phenyl-1H-1,2,3-triazol-1-yl)benzenesulphonamide] | 78.9 | 9.4 | 8.4 | 58.7 | 174 to 176
19 | COc1ccc(-c2c(CO)nnn2-c2ccc(S(N)(=O)=O)cc2)cc1 [Compound 8c, 4-(4-(Hydroxymethyl)-5-(4-methoxyphenyl)-1H-1,2,3-triazol-1-yl)benzenesulphonamide] | 812 | 4 | 1.9 | 5.8 | 180 to 182
20 | NS(=O)(=O)c1ccc(-n2nnc(CO)c2-c2ccc3ccccc3c2)cc1 [Compound 8d, 4-(4-(Hydroxymethyl)-5-(2-naphthyl)-1H-1,2,3-triazol-1-yl)benzenesulphonamide] | 214 | 8.1 | 1.9 | 7.8 | 212 to 214
